The numbers were not newly measured in US6576617B2, “Direct action anti-mycotic” (International Fiber Corporation, priority 1999, dated 2003), which cites them from elsewhere.

For series [1], the system named is mold, yeast, and fungal growth. The note with it: agar medium.
In series [2] the test system is mold, yeast, or fungus growth. The note with it: non-liquid foods for human consumption; conventional natamycin.

Regarding `C[C@@H]1C/C=C/C=C/C=C/C=C/[C@H](O[C@@H]2O[C@H](C)[C@@H](O)[C@H](N)[C@@H]2O)C[C@@H]2O[C@](O)(C[C@@H](O)C[C@H]3O[C@@H]3/C=C/C(=O)O1)C[C@H](O)[C@H]2C(=O)O` [natamycin], the “concentration with anti-mycotic activity” value in series [1] is given as no less than 1 ppm. Besides, in series [2], the “concentration necessary for effective mold, yeast, and fungus control” value is given as “greater than 5 ppm”.
